The test system of test [1] is DLD-1. In words: Antiproliferative activity against human DLD1 cells assessed as reduction in cell viability after 24 to 48 hrs by XTT assay. The class given is functional, cell-based. Background: Formazan colour is commonly taken as a measure of viable cells.
Test [2] has as its system HCT-116. Put plainly: Antiproliferative activity against human HCT116 cells assessed as reduction in cell viability after 24 to 48 hrs by XTT assay. The class given is functional, cell-based.
Test [3] has as its system HT-29. In words: Antiproliferative activity against human HT-29 cells assessed as reduction in cell viability after 24 to 48 hrs by XTT assay. The format is functional, cell-based.
Test [4] in a line: Antiproliferative activity against human DLD1 cells assessed as reduction in cell viability after 24 hrs by XTT assay. The conditions noted are these: DLD-1, 24 h. The class given is functional, cell-based.
Test [5] is described as follows: Antiproliferative activity against human HCT116 cells assessed as reduction in cell viability after 24 hrs by XTT assay. The class given is functional, cell-based. As to conditions: HCT-116, 24 h.
In test [6] the test system is HT-29. Put plainly: Antiproliferative activity against human HT-29 cells assessed as reduction in cell viability after 24 hrs by XTT assay. The class given is functional, cell-based. As to conditions: HT-29, 24 h.
Test [7] in a line: Cell cycle arrest in human DLD1 cells assessed as accumulation at sub-G1 phase at 30 uM after 24 hrs using propidium iodide by flow cytometry (reference value: 1.73 %). The class given is functional, cell-based. The conditions noted are these: DLD-1. Background: Flow cytometry measures light scatter and fluorescence of single cells or particles in a stream.
Test [8] can be described thus: Cell cycle arrest in human DLD1 cells assessed as accumulation at G0-G1 phase at 30 uM after 24 hrs using propidium iodide by flow cytometry (reference value: 35.37 %). The class given is functional, cell-based. The conditions noted are these: DLD-1.
A short description of test [9]: Cell cycle arrest in human DLD1 cells assessed as accumulation at S phase at 30 uM after 24 hrs using propidium iodide by flow cytometry (reference value: 21.08 %). The format is functional, cell-based. The conditions noted are these: DLD-1.
The nature of test [10]: Cell cycle arrest in human DLD1 cells assessed as accumulation at G2-M phase at 30 uM after 24 hrs using propidium iodide by flow cytometry (reference value: 39.85 %). As to conditions: DLD-1. The class given is functional, cell-based.
Test [11] can be described thus: Cell cycle arrest in human HCT116 cells assessed as accumulation at sub-G1 phase at 30 uM after 24 hrs using propidium iodide by flow cytometry (reference value: 1.78 %). The class given is functional, cell-based. The conditions noted are these: HCT-116.
A short description of test [12]: Cell cycle arrest in human HCT116 cells assessed as accumulation at G0-G1 phase at 30 uM after 24 hrs using propidium iodide by flow cytometry (reference value: 42.61 %). The format is functional, cell-based. The conditions noted are these: HCT-116.
Test [13] is described as follows: Cell cycle arrest in human HCT116 cells assessed as accumulation at S phase at 30 uM after 24 hrs using propidium iodide by flow cytometry (reference value: 18.80 %). The class given is functional, cell-based. The conditions noted are these: HCT-116.
A short description of test [14]: Cell cycle arrest in human HCT116 cells assessed as accumulation at G2-M phase at 30 uM after 24 hrs using propidium iodide by flow cytometry (reference value: 33.69 %). The format is functional, cell-based. As to conditions: HCT-116.
The subject of test [15] is HT-29. Put plainly: Cell cycle arrest in human HT-29 cells assessed as accumulation at sub-G1 phase at 30 uM after 24 hrs using propidium iodide by flow cytometry (reference value: 3.18 %). The format is functional.
The test system of test [16] is HT-29. Put plainly: Cell cycle arrest in human HT-29 cells assessed as accumulation at G0-G1 phase at 30 uM after 24 hrs using propidium iodide by flow cytometry (reference value: 43.78 %). The format is functional.
The subject of test [17] is HT-29. Put plainly: Cell cycle arrest in human HT-29 cells assessed as accumulation at S phase at 30 uM after 24 hrs using propidium iodide by flow cytometry (reference value: 28.28 %). The format is functional.
In test [18] the test system is HT-29. In words: Cell cycle arrest in human HT-29 cells assessed as accumulation at G2-M phase at 30 uM after 24 hrs using propidium iodide by flow cytometry (reference value: 21.66 %). The class given is functional.
Test [19] concerns DLD-1. In words: Induction of apoptosis in human DLD1 cells assessed as APO2.7-positive cells at 30 uM after 24 hrs using propidium iodide by flow cytometry (reference value: 1.01 %). The class given is functional.
Test [20] deals with HCT-116. In words: Induction of apoptosis in human HCT116 cells assessed as APO2.7-positive cells at 30 uM after 24 hrs using propidium iodide by flow cytometry (reference value: 1.19 %). The class given is functional.
Test [21] has as its system HT-29. In words: Induction of apoptosis in human HT-29 cells assessed as APO2.7-positive cells at 30 uM after 24 hrs using propidium iodide by flow cytometry (reference value: 1.11 %). The class given is functional.
Test [22] concerns DLD-1. Put plainly: Induction of apoptosis in human DLD1 cells assessed as PARP cleavage at 30 uM after 24 hrs using propidium iodide by Western blot analysis. The class given is functional, cell-based.
Test [23] relates to HCT-116. Put plainly: Induction of apoptosis in human HCT116 cells assessed as PARP cleavage at 30 uM after 24 hrs using propidium iodide by Western blot analysis. The format is functional, cell-based. Background: A western blot detects proteins with antibodies after separation by electrophoresis.
For test [24], the system named is HT-29. Put plainly: Induction of apoptosis in human HT-29 cells assessed as PARP cleavage at 30 uM after 24 hrs using propidium iodide by Western blot analysis. The class given is functional, cell-based.

Calls of active or inactive are those of the source. No cut-off for these calls is given here.

Regarding `C[C@H](CCC(=O)N1CCN(C(c2ccc(F)cc2)c2ccc(F)cc2)CC1)[C@H]1CC[C@H]2[C@@H]3[C@H](O)C[C@@H]4C[C@H](O)CC[C@]4(C)[C@H]3CC[C@]12C`, the Activity entry in the test on DLD-1 [1], in the test on HCT-116 [2] and in the test on HT-29 [3] was “Dose-dependent effect” throughout.

Turning to `C[C@H](CCC(=O)N1CCN(C(c2ccccc2)c2ccc(Cl)cc2)CC1)[C@H]1CC[C@H]2[C@@H]3[C@@H](O)C[C@@H]4C[C@H](O)CC[C@]4(C)[C@H]3CC[C@]12C` (stereo not given in full), the Activity entry in the test on DLD-1 [1], with HCT-116 [2] and in the test on HT-29 [3] was “Dose-dependent effect” throughout.

As for `C[C@H](CCC(=O)N1CCN(Cc2ccccc2)CC1)[C@H]1CC[C@H]2[C@@H]3CC[C@@H]4C[C@H](O)CC[C@]4(C)[C@H]3CC[C@]12C`, the Activity entry with DLD-1 [1], in the test with HCT-116 [2] and in the test with HT-29 [3] was “Dose-dependent effect” in each case.

By IC50 is commonly meant the concentration that gives 50% inhibition. With `C[C@H](CCC(=O)N1CCN(C/C=C/c2ccccc2)CC1)[C@H]1CC[C@H]2[C@@H]3[C@H](O)C[C@@H]4C[C@H](O)CC[C@]4(C)[C@H]3CC[C@]12C`, the results for the IC50 (in test [4]; in test [5]; in the test with HT-29 [6]) were 36 µM, 34 µM and 35 µM, respectively. Besides, the Activity in test [7] is 49.8%; in [8] it was 24%; in test [9], 18.8%; in test [10] it was 6.22%; in test [11], 31.2%; in test [12], 33%. The Activity was determined as 22.5% in test [13]; 11.3% in [14]; 48.38% in the test on HT-29 [15]; 28.49% in the test with HT-29 [16]; 18.65% with HT-29 [17]; 4.77% with HT-29 [18]. Also, the Activity was 34.87% in the test with DLD-1 [19], 37.73% with HCT-116 [20] and 8.79% with HT-29 [21]. Besides, the result in the test with DLD-1 [22], in the test with HCT-116 [23] and in the test with HT-29 [24] was Active.

In the case of `C[C@H](CCC(=O)N1CCN(C(c2ccccc2)c2ccc(Cl)cc2)CC1)[C@H]1CC[C@H]2[C@@H]3CC[C@@H]4C[C@H](O)CC[C@]4(C)[C@H]3C[C@H](O)[C@]12C` (stereo not given in full), the Activity result in the test with DLD-1 [1], with HCT-116 [2] and in the test with HT-29 [3] was “Dose-dependent effect” in each case.

Turning to `C[C@H](CCC(=O)N1CCN(Cc2ccccc2)CC1)[C@H]1CC[C@H]2[C@@H]3CC[C@@H]4C[C@H](O)CC[C@]4(C)[C@H]3C[C@H](O)[C@]12C`, the figures for the IC50 (in [4]; in test [5]; in the test on HT-29 [6]) were 26 µM, 22 µM and 32 µM, respectively. In addition, the Activity came out at 14.3% in test [7]; 28.5% in test [8]; 15.4% in test [9]; 39% in test [10]; 14.8% in test [11]; 33.6% in test [12]. Also, the Activity in [13] stood at 18.4%; in test [14] it was 28.9%; in the test on HT-29 [15] it was 34.81%; in the test on HT-29 [16], 36.89%; with HT-29 [17] it was 15.67%; in the test on HT-29 [18], 11.14%. The Activity in the test with DLD-1 [19] worked out at 2.49%; in the test with HCT-116 [20] it was 4.59%; with HT-29 [21], 1.26%. In addition, the result in the test on DLD-1 [22], in the test on HCT-116 [23] and in the test on HT-29 [24] was Active.

In the case of `C[C@H](CCC(=O)N1CCN(Cc2ccccc2)CC1)[C@H]1CC[C@H]2[C@@H]3[C@H](O)C[C@@H]4C[C@H](O)CC[C@]4(C)[C@H]3CC[C@]12C`, the IC50 came to 33 µM in test [4], 23 µM in test [5] and 36 µM in the test with HT-29 [6]. The Activity in [7] was 10.7%; in test [8], 40%; in [9], 14.1%; in test [10], 32.2%; in [11], 13%; in [12], 36.9%. For the same molecule, the Activity in [13] was determined as 17.8%; in [14], 26.6%; with HT-29 [15], 18.13%; in the test on HT-29 [16], 49.08%; in the test on HT-29 [17] it was 17.11%; with HT-29 [18], 13.63%. Further, the Activity with DLD-1 [19] was determined as 22.54%; in the test on HCT-116 [20], 20.33%; in the test on HT-29 [21], 8.57%. Further, the result in the test on DLD-1 [22], with HCT-116 [23] and in the test with HT-29 [24] was Active.

(Values after ChEMBL document CHEMBL3352062, “Synthesis and biological evaluation of bile carboxamide derivatives with pro-apoptotic effect on human colon adenocarcinoma cell lines” (Eur J Med Chem, 2014).)
